Data: patent US5571808A, “Method for treating smoking-related bone loss” (Eli Lilly and Company, priority 1995, dated 1996)

Legend:
[1] = system: ovariectomized (ovex) rats; assay: Femur bone density in ovariectomized rats (model of post-menopausal osteoporosis); assay type: in vivo, Sprague Dawley rats; settings: for inhibition in vivo at 1 mg/kg: Rattus norvegicus, 840 h, 1 mg/kg oral, relative to estrogen treated and untreated ovex animals, read-out: % Inhibition of Bone Loss; for Prevention of bone loss (in words): oral, femur density
Method: A model of post-menopausal osteoporosis was used in which effects of different treatments upon femur density were determined. Seventy-five day old female Sprague Dawley rats (weight range of 225 g to 275 g) were obtained from Charles River Laboratories (Portage, Mich.). They were housed in groups of 3 and had ad libitum access to food (calcium content approximately 1%) and water. Room temperature was maintained at 22.2°±1.7° C. with a minimum relative humidity of 40%. The photoperiod in the room was 12 hours light and 12 hours dark.
The right femurs were excised and scanned at the distal metaphysis 1 mm from the patellar groove with single photon absorptiometry. Results of the densitometer measurements represent a calculation of bone density as a function of the bone mineral content and bone width.
Results are reported as the mean of measurements from thirty rats ± the standard error of the mean.
Accordingly, each point reflects the responses of thirty rats and depicts a typical dose response curve for raloxifene in this model. Results are reported as the mean ± the standard error of the mean.
Other compounds of formula I were administered orally in the rat assay described in Example 1.

[2] = system: bone loss in postmenopausal women; settings: cited from earlier work

Molecule | inhibition in vivo at 1 mg/kg [1] [%] | Prevention of bone loss (in words) [1] | also measured
O=C(Oc1ccc(-c2sc3cc(OC(=O)c4ccccc4)ccc3c2C(=O)c2ccc(OCCN3CCCCC3)cc2)cc1)c1ccccc1 [Compound 12] | 60 |  | 
O=C(c1ccc(OCCN2CCCC2)cc1)c1c(-c2ccc(O)cc2)sc2cc(O)ccc12 [Compound 16] | 25 |  | 
COc1ccc(-c2sc3cc(OC)ccc3c2C(=O)c2ccc(OCCN3CCCCC3)cc2)cc1 [Compound 18] | 26 |  | 
C#C[C@]1(O)CC[C@H]2[C@@H]3CCc4cc(O)ccc4[C@H]3CC[C@@]21C [EE2, ethynyl estradiol] |  | prevented this loss of bone in a dose dependent manner | 
O=C(c1ccc(OCCN2CCCCC2)cc1)c1c(-c2ccc(O)cc2)sc2cc(O)ccc12 [raloxifene, 6-hydroxy-2-(4-hydroxyphenyl)-3-[4-(2-piperidinoethoxy)benzoyl]benzo[b]thiophene] |  | prevented bone loss in a dose dependent manner | 
estrogen |  |  | Disorders implicated in long-term estrogen therapy (in words) ([2]; long-term therapy, postmenopausal women): increased risk of uterine and breast cancer; Protective effects of estrogen therapy on bone (in words) ([2]; women smokers (Kiel et al.)): eliminated for women smokers
